Measurements from patent US5532366A, “Heterocyclic amides” (Zeneca Limited, priority 1992, dated 1996).

Biological target: T1, human leukocyte elastase (HLE) (Homo sapiens, UniProt P08246)
T1 sequence (P08246 30-267): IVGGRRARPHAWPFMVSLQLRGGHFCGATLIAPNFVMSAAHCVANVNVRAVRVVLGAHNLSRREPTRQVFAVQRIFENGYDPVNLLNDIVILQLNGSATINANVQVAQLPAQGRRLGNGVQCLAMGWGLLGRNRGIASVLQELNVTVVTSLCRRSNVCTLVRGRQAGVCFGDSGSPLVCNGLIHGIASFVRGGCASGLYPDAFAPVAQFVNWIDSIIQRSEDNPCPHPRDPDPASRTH
Test: Inhibition of human leukocyte elastase (HLE) on methoxy-succinyl-alanyl-alanyl-prolyl-valine-p-nitroanilide, Ki (Inhibition Measurements)
Type: biochemical
Settings: kinetic determination of dissociation constant; substrate methoxy-succinyl-alanyl-alanyl-prolyl-valine-p-nitroanilide
Protocol: The potency of a Compound to act as an inhibitor of human leukocyte elastase (HLE) on the low molecular weight peptide substrate methoxy-succinyl-alanyl-alanyl-prolyl-valine-p-nitroanilide is determined as described in U.S. Pat. No. 4,910,190. The potency of an inhibitor is evaluated by obtaining a kinetic determination of the dissociation constant, Ki, of the complex formed from the interaction of the inhibitor with HLE. If a Compound is found to be a "slow-binding" inhibitor of HLE, special methods of analysis to accurately determine Ki values for the inhibition of HLE are carried out as described in U.S. Pat. No. 4,910,190.

CC(C)C(NC(=O)Cn1ccc2c(=O)n(CC(=O)OCc3ccccc3)c(=O)[nH]c2c1=O)C(=O)C(F)(F)F (stereo not shown) [Example 13]
Ki: 44 nM
